Measured values reported in patent US10815254B2, “Biflavone-zinc complex, preparation method and application thereof” (NANJING FORESTRY UNIVERSITY, priority 2017, dated 2020).

How the values were obtained:
herring sperm DNA (fDNA) = assay: Interaction with fDNA by UV-vis spectroscopy, fluorescence spectroscopy and viscosity method; type: binding; details: UV-vis, fluorescence (fDNA-EB system), viscosity
From the text: UV-vis spectroscopy, fluorescence spectroscopy and viscosity method are used to study the interaction between the Ame/Ame-Zn complex and herring sperm DNA (fDNA) to further reveal the mechanism of antitumor activity, the obtained spectra are shown in FIGS. 7-11. […] Thereby, it can be speculated that the mechanism of antitumor activity of the Ame and its complex may be that Ame or the complex thereof enters the interior of the cell and intercalates with the DNA strand to cause apoptosis. Since the interaction of the complex with DNA is stronger than of the Ame, the antitumor activity thereof is also stronger than of the Ame.

[1] = Pyrogallol auto-oxidation method, O2-. free radical scavenging; details: Tris-HCl pH 8.20, 25° C., 322 nm, read-out: IC50 to scavenge O2^−. free radical
Protocol: The free radical scavenging effects of the Ame and the Ame-Zn complex were studied by pyrogallol auto-oxidation method and ABTS method with the following steps:
(1) Pyrogallol Auto-Oxidation Method
Determination of auto-oxidation rate V0 of pyrogallol: 2 mL Tris-HCl buffer (pH=8.20) was added to a 10 mL sample tube at 25° C., 100 μL DMSO was added as a control, after adding 0.8 mL distilled water, 0.2 mL pyrogallol solution having a concentration of 2 mmol·L^−1 was added, the mixture was poured into a cuvette after mixing uniformly, the absorbance at 322 nm was measured with pure water as a blank, the A value was recorded every 10 s for a total of 4 min, linear regression was performed with t as the abscissa, and A as the ordinate, straight line slope thereof is V0, and the measurement was performed for three times to obtain an average value. […]

[2] = ABTS method, ABTS+. free radical scavenging; details: 25° C., 5 min, 730 nm, from linear equation of scavenging rate vs concentration; read-out: IC50 for scavenging ABTS^+. free radicals
Protocol: Determination of […]. free radical ion scavenging capacity of the blank sample: at 25° C., 2.9 mL ABTS^+. free radical ion working solution was added into a 10 mL sample tube, 100 μL DMSO was added, after reacting for 5 min, the UV-vis spectrum was measured, and the absorption intensity A0 at 730 nm was recorded.
Determination of ABTS^+. free radical ion scavenging capacity of the samples: at 25° C., 2.9 mL ABTS^+. free radical ion working solution was added into a 10 mL sample tube, 100 μL samples of different concentrations that were dissolved in DMSO were added, after reacting for 5 min, the UV-vis spectrum was measured, and the absorption intensity A1 at 730 nm was recorded, and the ABTS^+. free radical ion scavenging rate was calculated according to Formula 4.
The ABTS^+. free radical scavenging capacities of the Ame and the Ame-Zn complex are concentration dependent. Within a certain range, the scavenging rate is linear with the concentration. The curve of the scavenging rate and the concentration (c) is plotted in the present invention to obtain a corresponding linear equation, and the maximum half-inhibitory concentration (IC50 value) is calculated.

- IC50 [1]: 23.3 µM
- IC50 [2]: 20.7 µM
Compound: O=c1cc(-c2ccc(O)c(-c3c(O)cc(O)c4c(=O)cc(-c5ccc(O)cc5)oc34)c2)oc2cc(O)cc(O)c12 [Ame, amentoflavone]
- manner of interaction with fDNA (herring sperm DNA (fDNA)): intercalation manner
